Key:
Type in all cases: in vivo
ORYSA=Orysa sativa, Rice [1] = assay: In-water applied herbicides and safeners in transplanted paddy rice, visual injury; conditions: in-water
Procedure: Weed seeds or nutlets of the desired test plant species were planted in puddled soil (mud) prepared by mixing a shredded, non-sterilized mineral soil (50.5 percent silt, 25.5 percent clay, and 24 percent sand, with a pH of about 7.6 and an organic matter content of about 2.9 percent) and water at a 1:1 volumetric ratio. The prepared mud was dispensed in 365 mL aliquots into 16-ounce (oz.) non-perforated plastic pots with a surface area of 86.59 square centimeters (cm^2) leaving a headspace of 3 centimeters (cm) in each pot. Rice seeds were planted in Sun Gro MetroMix® 306 planting mixture, which typically has a pH of 6.0 to 6.8 and an organic matter content of about 30 percent, in plastic plug trays. Seedlings at the second or third leaf stage of growth were transplanted into 860 mL of mud contained in 32-oz. non-perforated plastic pots with a surface area of 86.59 cm^2 4 days prior to herbicide application. The paddy was created by filling the headspace of the pots with 2.5 to 3 cm of water. When required to ensure good germination and healthy plants, a fungicide treatment and/or other chemical or physical treatment was applied. The plants were grown for 4-22 days in a greenhouse with an approximate 14 h photoperiod which was maintained at about 29′C during the day and about 26° C. during the night. Nutrients were added as Osmocote® (17:6:10, N:P:K+minor nutrients) at 2 g per 16-oz. pot and 4 g per 32-oz. pot. Water was added on a regular basis to maintain the paddy flood, and supplemental lighting was provided with overhead metal halide 1000-Watt lamps as necessary. The plants were employed for testing when they reached the second or third true leaf stage.
(§1) Treatments consisted of the acid or esters of 4-amino-3-chloro-5-fluoro-6-(4-chloro-2-fluoro-3-methoxy-phenyl)pyridine-2-carboxylic acid (compound A) and various safeners alone and in combination. Forms of compound A were applied on an acid equivalent basis. Safener components were applied on an active ingredient or acid equivalent basis depending on the compound.
Treatment requirements for each compound or herbicidal component were calculated based upon the rates being tested, the concentration of active ingredient or acid equivalent in the formulation, an application volume of 2 mL per component per pot, and an application area of 86.59 cm^2 per pot.
For formulated compounds, a measured amount was placed in an individual 100 or 200 mL glass vial and was dissolved in a volume of 1.25% (v/v) Agri-Dex® crop oil concentrate to obtain application solutions.
For technical grade compounds, a weighed amount can be placed in an individual 100 to 200 mL glass vial and dissolved in a volume of acetone to obtain concentrated stock solutions. […] The concentrated stock solutions obtained can be diluted with an equivalent volume of an aqueous mixture containing 2.5% (v/v) crop oil concentrate so that the final application solutions contain 1.25% (v/v) crop oil concentrate.
Applications were made by injecting with a pipetter appropriate amounts of the application solutions, individually and sequentially, into the aqueous layer of the paddy. Control plants were treated in the same manner with the solvent blank. Applications were made so that all treated plant material received the same concentrations of acetone and crop oil concentrate.
The treated plants and control plants were placed in a greenhouse as described above and water was added as needed to maintain a paddy flood. After approximately 3 weeks the condition of the test plants as compared with that of the untreated plants was determined visually and scored on a scale of 0 to 100 percent where 0 corresponds to no injury or growth inhibition and 100 corresponds to complete kill.
Colby's equation was used to determine the herbicidal effects expected from the mixtures (Colby, S. R. 1967. Calculation of the synergistic and antagonistic response of herbicide combinations. Weeds 15:20-22.). […]

ORYSA=Orysa sativa, Rice [2] = assay: Postemergence foliar-applied herbicides and safeners in direct-seeded rice, visual injury; conditions: foliar; for Visual Injury (%) - 21 DAA ORYSA-‘Clearfield 171’ Obs / Visual Injury (%) - 21 DAA ORYSA-‘Neptune’ Obs / Visual Injury (%) - 21 DAA ORYSA-‘Wells’ Obs: Tables 1,2,7,8
From the text: (§2) Seeds or nutlets of the desired test plant species were planted in a soil matrix prepared by mixing a loam or sandy loam soil (e.g., 28.6 percent silt, 18.8 percent clay, and 52.6 percent sand, with a pH of about 5.8 and an organic matter content of about 1.8 percent) and calcareous grit in an 80 to 20 ratio. The soil matrix was contained in plastic pots with a surface area of 84.6 square centimeters (cm^2). When required to ensure good germination and healthy plants, a fungicide treatment and/or other chemical or physical treatment was applied. The plants were grown for 8-22 days in a greenhouse with an approximate 14 hr photoperiod which was maintained at about 29° C. during the day and 26° C. during the night. Nutrients (Peters Excel 15-5-15 5-Ca 2-Mg and iron chelate) were applied in the irrigation solution as needed and water was added on a regular basis. Supplemental lighting was provided with overhead metal halide 1000-Watt lamps as necessary. The plants were employed for testing when they reached the second or third true leaf stage.
as §1, with “safener components” for “safeners”
(§3) Treatment requirements were calculated based upon the rates being tested, the concentration of active ingredient or acid equivalent in the formulation, and a 12 mL application volume at a rate of 187 L/ha.
(§4) For treatments comprised of formulated compounds, measured amounts of compounds were placed individually in 25 mL glass vials and diluted in a volume of 1.25% (v/v) Agri-dex crop oil concentrated to obtain 12× stock solutions. […] Application solutions were prepared by adding an appropriate amount of each stock solution (e.g., 1 mL) and diluted to the appropriate final concentrations with the addition of 10 mL of an aqueous mixture of 1.25% (v/v) Agri-dex crop oil concentrate so that the final spray solutions contained 1.25% (v/v) Agri-dex crop oil concentrate.
(§5) For treatments comprised of technical compounds, weighed amounts were placed individually in 25 mL glass vials and dissolved in a volume of 97:3 v/v acetone/DMSO to obtain 12× stock solutions. […] Application solutions were prepared by adding an appropriate amount of each stock solution (e.g., 1 mL) and diluted to the appropriate final concentrations with the addition of 10 mL of an aqueous mixture of 1.5% (v/v) Agri-dex crop oil concentrate so that the final spray solutions contained 1.25% (v/v) Agri-dex crop oil concentrate. When technical materials were used, the concentrated stock solutions were added to the spray solutions so that the final acetone and DMSO concentrations of the application solutions were […], respectively.
(§6) For treatments comprised of formulated and technical compounds, weighed amounts of the technical materials were placed individually in 25 mL glass vials and dissolved in a volume of 97:3 v/v acetone/DMSO to obtain 12× stock solutions, and measured amounts of the formulated compounds were placed individually in 25 mL glass vials and diluted in a volume of 1.5% (v/v) Agri-dex crop oil concentrate or water to obtain 12× stock solutions. […] Application solutions were prepared by adding an appropriate amount of each stock solution (e.g., 1 mL) and diluted to the appropriate final concentrations with the addition of an appropriate amount of an aqueous mixture of 1.5% (v/v) Agri-dex crop oil concentrate so that the final spray solutions contained 1.25% (v/v) Agri-dex crop oil concentrate. When required, additional water and/or 97:3 v/v acetone/DMSO was added to individual application solutions so that the final acetone and DMSO concentrations of the application solutions being compared were 8.1% and 0.25%, respectively. […]

[3] = test system: ECHCG=Echinochloa crus-galli; assay: Postemergence foliar-applied herbicides and safeners, visual injury of weed; conditions: Echinochloa crus-galli, foliar, 480 h, read-out: Visual Injury (%) - 20 DAA ECHCG Obs, foliar; Compound A form 140 g ae/ha alone; trial of Tables 5,9,11,13
From the text: as §2
as §1, with “safener components” for “safeners”
as §3, §4, §5, §6

SMILES | Visual Injury (%) - 21 DAA ORYSA - ‘M202’ Obs (ORYSA=Orysa sativa, Rice [1]; safener 140 g ai/ha alone) [%] | Visual Injury (%) - 21 DAA ORYSA - ‘M202’ Obs (ORYSA=Orysa sativa, Rice [1]; safener 280 g ai/ha alone) [%] | Visual Injury (%) - 21 DAA ORYSA - ‘M202’ Obs (ORYSA=Orysa sativa, Rice [1]; safener 560 g ai/ha alone) [%] | Visual Injury (%) - 21 DAA ORYSA-‘Clearfield 171’ Obs (ORYSA=Orysa sativa, Rice [2]; safener 70 g ai/ha alone) [%] | Visual Injury (%) - 21 DAA ORYSA-‘Neptune’ Obs (ORYSA=Orysa sativa, Rice [2]; safener 70 g ai/ha alone) [%] | Visual Injury (%) - 21 DAA ORYSA-‘Wells’ Obs (ORYSA=Orysa sativa, Rice [2]; safener 70 g ai/ha alone) [%] | Visual Injury (%) - 21 DAA ORYSA-‘Clearfield 171’ Obs (ORYSA=Orysa sativa, Rice [2]; safener 140 g ai/ha alone) [%] | Visual Injury (%) - 21 DAA ORYSA-‘Neptune’ Obs (ORYSA=Orysa sativa, Rice [2]; safener 140 g ai/ha alone) [%] | Visual Injury (%) - 21 DAA ORYSA-‘Wells’ Obs (ORYSA=Orysa sativa, Rice [2]; safener 140 g ai/ha alone) [%] | Visual Injury (%) - 21 DAA ORYSA-‘Neptune’ Obs (ORYSA=Orysa sativa, Rice [2]; safener 280 g ai/ha alone) [%] | Visual Injury (%) - 21 DAA ORYSA-‘Wells’ Obs (ORYSA=Orysa sativa, Rice [2]; safener 280 g ai/ha alone) [%] | Visual Injury (%) - 21 DAA ORYSA - ‘M202’ Obs (ORYSA=Orysa sativa, Rice [1]; Compound A form 140 g ae/ha alone) [%] | Visual crop injury (%) at 140 g/ha (ORYSA=Orysa sativa, Rice [2]; Oryza sativa, 480 h, read-out: Visual Injury (%) - 20 DAA ORYSA-‘Clearfield 171’ Obs, foliar, Compound A form 140 g ae/ha alone, trial of Tables 5,9,11,13) [%] | pest or weed control at 140 g/ha [3] [%]
CCOC(=O)C1=NOC(c2ccccc2)(c2ccccc2)C1 [Isoxadifen-ethyl, ethyl 4,5-dihydro-5,5-diphenyl-3-isoxazole-carboxylate] | 0 | 0 | 0 | 0 | 0 | 0 | 0 | 0 | 0 | 0 | 0 |  |  | 
COC(=O)c1nc(-c2ccc(Cl)c(OC)c2F)c(F)c(N)c1Cl [Methyl] |  |  |  |  |  |  |  |  |  |  |  | 17.5 | 12 | 98

Source: US10172355B2, “Safened herbicidal compositions including 4-amino-3-chloro-5-fluoro-6-(4-chloro-2-fluoro-3-methoxyphenyl)pyridine-2-carboxylic acid or a derivative thereof for use in rice” (Dow AgroSciences LLC, priority 2012, dated 2019)
